From ChEMBL document CHEMBL3638693, “Pyrazole compound and pharmaceutical use thereof” (2014)

Molecular target: T1, Sodium/glucose cotransporter 1 (Homo sapiens, UniProt P13866)
T1 sequence (P13866 whole entry): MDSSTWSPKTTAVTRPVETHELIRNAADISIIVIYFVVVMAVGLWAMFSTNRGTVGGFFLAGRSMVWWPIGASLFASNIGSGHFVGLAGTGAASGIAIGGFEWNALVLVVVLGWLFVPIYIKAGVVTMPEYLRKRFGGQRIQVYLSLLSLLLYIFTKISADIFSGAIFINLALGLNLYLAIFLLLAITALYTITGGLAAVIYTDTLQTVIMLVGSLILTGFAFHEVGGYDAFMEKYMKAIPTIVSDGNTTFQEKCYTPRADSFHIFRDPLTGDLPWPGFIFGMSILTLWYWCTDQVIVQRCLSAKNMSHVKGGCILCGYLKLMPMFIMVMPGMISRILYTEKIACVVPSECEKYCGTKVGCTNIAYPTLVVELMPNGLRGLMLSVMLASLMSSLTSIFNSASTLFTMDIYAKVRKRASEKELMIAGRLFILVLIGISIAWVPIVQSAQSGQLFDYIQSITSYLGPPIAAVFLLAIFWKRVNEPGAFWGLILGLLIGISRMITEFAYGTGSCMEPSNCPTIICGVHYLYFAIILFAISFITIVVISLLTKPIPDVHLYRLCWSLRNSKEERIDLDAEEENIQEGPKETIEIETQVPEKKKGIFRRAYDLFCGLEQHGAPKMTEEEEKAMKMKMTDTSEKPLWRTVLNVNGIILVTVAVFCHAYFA
Test: Inhibition Assay: The stable cell line expressing human SGLT1 was seeded at 5x10^4 cells/well on BioCoat Poly-D-Lysine 96 well plate with Lid (Becton Dickinson and Company) and cultured at 37 C. under 5% CO2 overnight. The medium was replaced with 100 uL/well of a Na (+) buffer (140 mM choline chloride, 2 mM KCl, 1 mM MgCl2, 1 mM CaCl2, 10 mM HEPES, 5 mM Tris, pH7.4) followed by incubation for 20 minutes at 37 C. under 5% CO2. After removing the Na (+) buffer, a test compound solution which was prepared from Na (+) buffer (140 mM NaCl, 2 mM KCl, 1 mM MgCl2, 1 mM CaCl2, 10 mM HEPES, 5 mM Tris, pH7.4) containing BSA was added thereto at 40 uL/well. In addition, Na (+) buffer containing 8 kBq of 14C-AMG and 2 mM AMG was added thereto at 40 uL/well, and was mixed well. Na (+) buffer containing BSA was added to a blank well at 40 uL/well and additionally adding a Na (+) buffer containing 8 kBq of 14C-AMG and 2 mM AMG, and was mixed well.

- IC50: 22 nM
Structure (SMILES): O=C1C[C@H](C(=O)Nc2cc(-c3cccc(COCC(F)(F)F)c3)n(-c3ccc(F)cc3)n2)CN1
